Assay type in all cases: cell-based
One test deals with T1, human TLR8 (Homo sapiens, UniProt Q9NR97).
T1 construct: host or cells: HEK-Blue cells
T1 sequence (Q9NR97 27-1041): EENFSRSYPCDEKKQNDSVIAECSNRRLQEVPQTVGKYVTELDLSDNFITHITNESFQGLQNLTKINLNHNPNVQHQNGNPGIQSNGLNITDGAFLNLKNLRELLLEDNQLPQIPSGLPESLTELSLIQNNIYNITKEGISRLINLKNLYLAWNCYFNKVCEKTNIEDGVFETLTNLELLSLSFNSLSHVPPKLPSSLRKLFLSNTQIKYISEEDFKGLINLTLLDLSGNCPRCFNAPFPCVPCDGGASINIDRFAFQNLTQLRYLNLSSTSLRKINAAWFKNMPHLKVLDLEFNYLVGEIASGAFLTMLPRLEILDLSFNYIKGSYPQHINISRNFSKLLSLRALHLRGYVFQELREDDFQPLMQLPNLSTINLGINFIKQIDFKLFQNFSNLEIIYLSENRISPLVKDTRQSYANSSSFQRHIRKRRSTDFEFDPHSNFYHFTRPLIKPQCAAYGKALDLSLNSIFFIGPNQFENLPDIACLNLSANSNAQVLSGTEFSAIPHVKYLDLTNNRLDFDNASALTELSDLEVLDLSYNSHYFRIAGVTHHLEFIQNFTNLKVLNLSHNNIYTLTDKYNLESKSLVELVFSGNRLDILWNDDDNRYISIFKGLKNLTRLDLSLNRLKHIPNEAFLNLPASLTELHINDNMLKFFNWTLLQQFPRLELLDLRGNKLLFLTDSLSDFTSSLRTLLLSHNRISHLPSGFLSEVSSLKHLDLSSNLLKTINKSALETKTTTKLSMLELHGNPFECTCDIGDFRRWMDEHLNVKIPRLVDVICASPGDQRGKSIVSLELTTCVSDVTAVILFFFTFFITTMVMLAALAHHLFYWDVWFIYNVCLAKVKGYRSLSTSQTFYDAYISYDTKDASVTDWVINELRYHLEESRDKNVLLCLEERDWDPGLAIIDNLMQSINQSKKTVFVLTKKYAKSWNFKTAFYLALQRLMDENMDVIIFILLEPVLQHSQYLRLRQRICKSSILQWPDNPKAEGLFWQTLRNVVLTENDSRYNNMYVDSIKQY
Description: TLR8 inhibition reporter assay (HEK-Blue cells, SEAP reporter, R848 stimulation). As to conditions: HEK-Blue cells overexpressing human TLR8, SEAP reporter, R848 15.9 μM. As for the experimental part:
(§1) TLR7/8/9 Inhibition Reporter Assays
(§2) HEK-Blue™-cells (Invivogen) overexpressing human TLR7, TLR8 or TLR9 receptors were used for screening inhibitors of these receptors using an inducible SEAP (secreted embryonic alkaline phosphatase) reporter gene under the control of the IFN-β minimal promoter fused to five NF-κB and AP-1-binding sites. Briefly, cells are seeded into Greiner 384 well plates (15000 cells per well for TLR7, 20,000 for TLR8 and 25,000 for TLR9) and then treated with test compounds in DMSO to yield a final dose response concentration range of 0.05 nM-50 μM. After a 30 minute compound pre-treatment al room temperature, the cells are then stimulated with a TLR7 ligand (gardiquimod at a final concentration of 7.5 μM), TLR8 ligand (R848 at a final concentration of 15.9 μM) or TLR9 ligand (ODN2006 at a final concentration of 5 nM) to activate NF-κB and AP-1 which induce the production of SEAP. After a 22 hour incubation at 37° C., 5% CO2, SEAP levels are determined with the addition of HEK-Blue™ Detection reagent (Invivogen), a cell culture medium that allows for detection of SEAP, according to manufacturer's specifications. The percent inhibition is determined as the % reduction in the HEK-Blue signal present in wells treated with agonist plus DMSO alone compared to wells treated with a known inhibitor.
(In a reporter assay the amount or activity of a reporter protein is the signal.)

A further test addresses T2, human TLR9 (Homo sapiens, UniProt Q9NR96).
T2 construct: host or cells: HEK-Blue cells
T2 sequence (Q9NR96 26-1032): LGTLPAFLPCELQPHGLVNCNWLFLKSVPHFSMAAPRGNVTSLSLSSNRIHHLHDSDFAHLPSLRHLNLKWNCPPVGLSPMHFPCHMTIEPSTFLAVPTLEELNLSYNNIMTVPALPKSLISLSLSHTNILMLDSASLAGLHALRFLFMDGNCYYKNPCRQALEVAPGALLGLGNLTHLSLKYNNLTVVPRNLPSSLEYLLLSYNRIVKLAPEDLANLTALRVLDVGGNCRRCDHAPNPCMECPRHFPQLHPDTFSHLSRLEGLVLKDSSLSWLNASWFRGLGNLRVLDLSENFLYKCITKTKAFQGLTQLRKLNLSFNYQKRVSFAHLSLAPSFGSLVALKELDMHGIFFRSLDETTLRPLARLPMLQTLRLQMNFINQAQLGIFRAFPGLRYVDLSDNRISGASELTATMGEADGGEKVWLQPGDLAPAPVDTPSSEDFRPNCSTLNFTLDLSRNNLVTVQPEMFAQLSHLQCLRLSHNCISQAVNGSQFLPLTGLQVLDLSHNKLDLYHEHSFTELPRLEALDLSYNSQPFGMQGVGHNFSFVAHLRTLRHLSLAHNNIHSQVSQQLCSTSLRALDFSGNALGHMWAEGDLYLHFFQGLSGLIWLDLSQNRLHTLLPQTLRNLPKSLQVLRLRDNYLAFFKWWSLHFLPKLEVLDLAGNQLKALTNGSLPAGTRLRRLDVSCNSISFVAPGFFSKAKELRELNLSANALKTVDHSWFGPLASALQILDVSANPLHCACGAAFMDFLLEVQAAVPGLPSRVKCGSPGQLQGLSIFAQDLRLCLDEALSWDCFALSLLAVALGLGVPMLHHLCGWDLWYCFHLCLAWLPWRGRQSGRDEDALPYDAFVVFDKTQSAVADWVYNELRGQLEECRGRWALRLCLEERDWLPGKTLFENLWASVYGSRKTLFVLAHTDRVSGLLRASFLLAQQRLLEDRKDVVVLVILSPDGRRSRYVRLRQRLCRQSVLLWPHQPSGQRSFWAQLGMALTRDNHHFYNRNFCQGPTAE
Description: TLR9 inhibition reporter assay (HEK-Blue cells, SEAP reporter, ODN2006 stimulation). As to conditions: HEK-Blue cells overexpressing human TLR9, SEAP reporter, ODN2006 5 nM. Here is the method:
as §1, §2

The target in a further test is T3, human TLR7 (Homo sapiens, UniProt Q9NYK1).
T3 construct: host or cells: HEK-Blue cells
T3 sequence (Q9NYK1 27-1049): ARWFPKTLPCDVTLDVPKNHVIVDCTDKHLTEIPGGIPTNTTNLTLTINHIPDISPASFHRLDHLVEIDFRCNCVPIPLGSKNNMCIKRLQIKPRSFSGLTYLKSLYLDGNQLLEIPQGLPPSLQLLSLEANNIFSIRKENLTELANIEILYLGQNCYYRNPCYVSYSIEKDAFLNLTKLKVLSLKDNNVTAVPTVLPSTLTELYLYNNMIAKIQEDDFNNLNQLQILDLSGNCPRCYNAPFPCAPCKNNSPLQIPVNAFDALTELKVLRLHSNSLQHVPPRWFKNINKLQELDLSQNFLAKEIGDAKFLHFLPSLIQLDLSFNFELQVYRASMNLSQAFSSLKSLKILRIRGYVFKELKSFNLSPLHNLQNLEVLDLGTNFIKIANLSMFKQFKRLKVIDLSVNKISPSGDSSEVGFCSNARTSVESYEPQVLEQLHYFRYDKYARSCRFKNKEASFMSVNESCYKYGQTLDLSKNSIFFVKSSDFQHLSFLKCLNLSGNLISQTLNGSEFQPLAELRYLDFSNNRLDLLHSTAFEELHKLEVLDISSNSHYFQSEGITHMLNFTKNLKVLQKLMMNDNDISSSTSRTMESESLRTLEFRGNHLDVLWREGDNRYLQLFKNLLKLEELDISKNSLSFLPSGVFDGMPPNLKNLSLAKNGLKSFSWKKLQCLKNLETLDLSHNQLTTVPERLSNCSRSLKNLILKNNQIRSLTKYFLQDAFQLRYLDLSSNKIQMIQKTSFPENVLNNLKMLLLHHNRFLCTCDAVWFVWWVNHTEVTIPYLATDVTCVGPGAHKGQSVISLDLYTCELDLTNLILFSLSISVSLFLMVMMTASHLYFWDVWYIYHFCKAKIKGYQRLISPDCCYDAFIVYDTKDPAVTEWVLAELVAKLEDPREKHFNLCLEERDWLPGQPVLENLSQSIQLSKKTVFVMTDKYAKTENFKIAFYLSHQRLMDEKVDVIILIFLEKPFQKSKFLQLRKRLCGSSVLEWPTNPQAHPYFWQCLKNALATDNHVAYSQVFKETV
Description: TLR7 inhibition reporter assay (HEK-Blue cells, SEAP reporter, gardiquimod stimulation). The settings on record: HEK-Blue cells overexpressing human TLR7, SEAP reporter, gardiquimod 7.5 μM. Here is the method: as §1, §2

SMILES strings stand for the structures.

What is called IC50 is the point on the concentration scale where inhibition reaches its midpoint. A lower IC50 goes with greater potency in that assay. For `Cc1c(-c2[nH]c3ccc(C4CC(NCCS(C)(=O)=O)C4)cc3c2C(C)C)cn(C)c(=O)c1C` (stereo not drawn) [Example 495], the IC50 came to 1.3 nM on human TLR8, 20700 nM at human TLR9 and 38 nM at human TLR7.

On to `Cc1cc(-c2[nH]c3ccc(C4CCCN(C(=O)CN5CCOCC5)C4)cc3c2C(C)C)cc(C)n1` (stereo not drawn) [Example 197], for which the IC50 on human TLR8 stood at 16 nM; on human TLR9, 44600 nM; at human TLR7, 2 nM.

For the compound `CCN(C)CC(=O)N1CCOC(c2ccc3[nH]c(-c4cc(OC)c5ncnn5c4)c(C(C)C)c3c2)C1` (stereo not drawn) [Example 359, 2-(ethyl(methyl)amino)-1-(2-(3-isopropyl-2-(8-methoxy-[1,2,4]triazolo[1,5-a]pyridin-6-yl)-1H-indol-5-yl)morpholino)ethanone], the figures for the IC50 against human TLR8, at human TLR9 and on human TLR7 were 4.7 nM, 3630 nM and 0.56 nM, respectively.

With `COc1cc(-c2[nH]c3ccc(C4CCC(NCC(F)(F)F)CC4)cc3c2C(C)C)cn2ncnc12` (single isomer, unassigned) [Example 110], the values for the IC50 against human TLR8, at human TLR9 and against human TLR7 were 396 nM, 37000 nM and 24 nM, respectively.

Take `Cc1cc(-c2[nH]c3ccc(C4CN(CC(=O)N(C)C)CCO4)cc3c2C(C)C)cc(C)n1` (stereo not drawn) [Example 322]: the IC50 against human TLR8 worked out at 86 nM; on human TLR9, 20300 nM; at human TLR7, 69 nM.

Consider `Cc1c(-c2[nH]c3ccc(C4CC(NC5COC5)C4)cc3c2C(C)C)cn(C)c(=O)c1C` (stereo not drawn) [Example 496], for which the IC50 against human TLR8 is 4.3 nM; against human TLR9, greater than 50000 nM; on human TLR7, 57 nM.

Regarding `Cc1cc(-c2[nH]c3ccc(C4CN(CC(C)(C)O)CCO4)cc3c2C(C)C)cc(C)n1` (stereo not drawn) [Example 357], the IC50 at human TLR8 worked out at 5.4 nM; against human TLR9, 1970 nM; on human TLR7, 36 nM.

Turning to `COc1cc(-c2[nH]c3ccc(C4CCC(NCC(F)(F)F)CC4)cc3c2C(C)C)cn2ncnc12` (single isomer, unassigned) [Example 108], the results for the IC50 on human TLR8, on human TLR9 and against human TLR7 were 38 nM, 19800 nM and 7 nM, respectively.

As to `Cc1c(-c2[nH]c3ccc(C4CCCN(CC(=O)N(C)C)C4)cc3c2C(C)C)cn2ncnc2c1C` (stereo not drawn) [Example 226], the IC50 against human TLR8 turned out to be 7.4 nM; against human TLR9, 9770 nM; on human TLR7, 17 nM.

In the case of `COCCN1CC(c2ccc3[nH]c(-c4cn(C)c(=O)c(C)c4C)c(C(C)C)c3c2)C1` [Example 487], the results for the IC50 against human TLR8, on human TLR9 and against human TLR7 were 5.8 nM, 10500 nM and 45 nM, respectively.

Consider `COCCN1CC(c2ccc3[nH]c(-c4cc(C)c5ncnn5c4)c(C(C)C)c3c2)OCC1(C)C` (stereo not drawn) [Example 382], for which the concentration for half-maximal inhibition (IC50) on human TLR8 amounted to 3.4 nM; on human TLR9 it was 7170 nM; against human TLR7, 15 nM.

As for `Cc1cc(-c2[nH]c3ccc(C4CCCN(C(=O)C5(N)CC5)C4)cc3c2C(C)C)cc(C)n1` (stereo not drawn) [Example 201], the values for the IC50 against human TLR8, against human TLR9 and on human TLR7 were 109 nM, 19300 nM and 7 nM, respectively.

Regarding `COc1cc(-c2[nH]c3ccc(C4CC(NCCS(C)(=O)=O)C4)cc3c2C(C)C)cn2ncnc12` (stereo not drawn) [Example 571], the figures for the IC50 at human TLR8, against human TLR9 and against human TLR7 were 0.33 nM, 2320 nM and 0.53 nM, respectively.

With `Cc1cc(-c2[nH]c3ccc(C4CNCCO4)cc3c2C(C)C)cn2ncnc12` (stereo not drawn) [Example 283], the results for the IC50 on human TLR8, at human TLR9 and at human TLR7 were 1.3 nM, 2670 nM and 0.95 nM, respectively.

Consider `Cc1cc(-c2[nH]c3ccc(C4CCC(N5CCN(C)CC5)CC4)cc3c2C(C)C)cc(C)n1` (single isomer, unassigned) [Example 36], for which the IC50 against human TLR8 came out at 3.9 nM; at human TLR9, 417 nM; against human TLR7, 2 nM.

`Cc1cc(-c2[nH]c3ccc(C4CN(C(=O)CN(C)C)CCO4)cc3c2C(C)C)cn2ncnc12` (stereo not drawn) [Example 328, 2-(dimethylamino)-1-(2-(3-isopropyl-2-(8-methyl-[1,2,4]triazolo[1,5-a]pyridin-6-yl)-1H-indol-5-yl)morpholino)ethanone]: the IC50 was determined as 8.2 nM at human TLR8, 5490 nM on human TLR9 and 0.85 nM against human TLR7.

For the compound `COc1cc(-c2[nH]c3ccc(C4CCC(N(C)OC)CC4)cc3c2C(C)C)cn2ncnc12` (stereo not drawn) [Example 99], the IC50 was determined as 53 nM at human TLR8, 15300 nM against human TLR9 and 7 nM on human TLR7.

The record behind these values is patent US11878975B2, “Substituted indole compounds useful as TLR inhibitors” (BRISTOL-MYERS SQUIBB COMPANY, priority 2017, dated 2024).
